Results as given in patent US10131652B2, “Pyrimidinyloxy benzene derivatives as herbicides” (E. I. DU PONT DE NEMOURS AND COMPANY, priority 2014, dated 2018).
Read-outs that look alike come from different tables or passages of the source.

Assays:
Experiment in all cases: Test D pre-/postemergence plant response
Format in all cases: in vivo
[1] = tested on: barnyardgrass (Echinochloa crus-galli); conditions: Echinochloa crus-galli; for pest or weed control at 16 g/ha: 16 g ai/ha; for pest or weed control at 16 g/ha / pest or weed control at 31 g/ha: scale 0 to 100 (0 no effect, 100 complete control); for pest or weed control at 31 g/ha: 31 g ai/ha; for pest or weed control at 62 g/ha: 62 g ai/ha; for pest or weed control at 125 g/ha: 125 g ai/ha
Description: (§1) Seeds of plant species selected from blackgrass (Alopecurus myosuroides), Italian ryegrass (Lolium multiflorum), winter wheat (Triticum aestivum), galium (catchweed bedstraw, Galium aparine), corn (Zea mays), large (Lg) crabgrass (Digitaria sanguinalis), giant foxtail (Setaria faberii), johnsongrass (Sorghum halepense), lambsquarters (Chenopodium album), morningglory (Ipomoea coccinea), yellow nutsedge (Cyperus esculentus), pigweed (Amaranthus retroflexus), ragweed (common ragweed, Ambrosia elatior), soybean (Glycine max), bamyardgrass (Echinochloa crus-galli), oilseed rape (Brassica napus), waterhemp (common waterhemp, Amaranthus rudis), and velvetleaf (Abutilon theophrasti) were planted into a blend of loam soil and sand and treated preemergence with test chemicals formulated in a non-phytotoxic solvent mixture which included a surfactant. At the same time, plants selected from these crop and weed species and also kochia (Kochia scoparia), wild oat (Avena fatua), and chickweed (common chickweed, Stellaria media) were planted in pots containing Redi-Earth® planting medium (Scotts Company, 14111 Scottslawn Road, Marysville, Ohio 43041) comprising spaghnum peat moss, vermiculite, wetting agent and starter nutrients and treated with postemergence applications of test chemicals formulated in the same manner. Plants ranged in height from 2 to 18 cm (1- to 4-leaf stage) for postemergence treatments. Treated plants and controls were maintained in a greenhouse for 13 to 15 days, after which time all species were compared to controls and visually evaluated. Plant response ratings, summarized in Table D, are based on a scale of 0 to 100 where 0 is no effect and 100 is complete control. A dash (-) response means no test result.

[2] = tested on: soybean (Glycine max); conditions: Glycine max; for plant injury at 16 g/ha: 16 g ai/ha; for plant injury at 31 g/ha: 31 g ai/ha; for plant injury at 62 g/ha: 62 g ai/ha; for plant injury at 125 g/ha: 125 g ai/ha
Description: as §1

[3] = tested on: ragweed (common ragweed, Ambrosia elatior); conditions: Ambrosia artemisiifolia; for pest or weed control at 16 g/ha: 16 g ai/ha; for pest or weed control at 31 g/ha: 31 g ai/ha; for pest or weed control at 62 g/ha: 62 g ai/ha; for pest or weed control at 125 g/ha: 125 g ai/ha
Description: as §1

[4] = tested on: winter wheat (Triticum aestivum); conditions: Triticum aestivum; for plant injury at 16 g/ha: 16 g ai/ha; for plant injury at 31 g/ha: 31 g ai/ha; for plant injury at 62 g/ha: 62 g ai/ha; for plant injury at 125 g/ha: 125 g ai/ha
Description: as §1

[5] = tested on: oilseed rape (Brassica napus); conditions: Brassica napus; for plant injury at 16 g/ha: 16 g ai/ha; for plant injury at 31 g/ha: 31 g ai/ha; for plant injury at 62 g/ha: 62 g ai/ha; for plant injury at 125 g/ha: 125 g ai/ha
Description: as §1

[6] = tested on: giant foxtail (Setaria faberii); conditions: Setaria faberi; for pest or weed control at 16 g/ha: 16 g ai/ha; for pest or weed control at 31 g/ha: 31 g ai/ha; for pest or weed control at 62 g/ha: 62 g ai/ha; for pest or weed control at 125 g/ha: 125 g ai/ha
Description: as §1

[7] = tested on: pigweed (Amaranthus retroflexus); conditions: Amaranthus retroflexus; for pest or weed control at 16 g/ha: 16 g ai/ha; for pest or weed control at 31 g/ha: 31 g ai/ha; for pest or weed control at 62 g/ha: 62 g ai/ha; for pest or weed control at 125 g/ha: 125 g ai/ha
Description: as §1

[8] = tested on: blackgrass (Alopecurus myosuroides); conditions: Alopecurus myosuroides; for pest or weed control at 16 g/ha: 16 g ai/ha; for pest or weed control at 31 g/ha: 31 g ai/ha; for pest or weed control at 62 g/ha: 62 g ai/ha; for pest or weed control at 125 g/ha: 125 g ai/ha
Description: as §1

[9] = tested on: johnsongrass (Sorghum halepense); conditions: Sorghum halepense; for pest or weed control at 16 g/ha: 16 g ai/ha; for pest or weed control at 31 g/ha: 31 g ai/ha; for pest or weed control at 62 g/ha: 62 g ai/ha; for pest or weed control at 125 g/ha: 125 g ai/ha
Description: as §1

[10] = post-emergence, Postemergence, read-out: Barnyardgrass plant response rating
[11] = post-emergence, Postemergence, scale 0 to 100, 0 no effect, 100 complete control, read-out: Plant response rating, Barnyardgrass
[12] = pre-emergence, Preemergence, read-out: Plant response rating (scale 0 to 100), Barnyardgrass
[13] = pre-emergence, Preemergence, read-out: Plant response rating, Barnyardgrass
[14] = post-emergence, Postemergence, scale 0 to 100 (0 no effect, 100 complete control), read-out: Soybean plant response rating
[15] = post-emergence, Postemergence, scale 0 to 100, 0 no effect, 100 complete control, read-out: Plant response rating, Soybean
[16] = pre-emergence, Preemergence, scale 0 to 100 (0 no effect, 100 complete control), read-out: Plant response rating, Soybean
[17] = post-emergence, Postemergence, scale 0 to 100 (0 no effect, 100 complete control), read-out: Ragweed plant response rating
[18] = post-emergence, Postemergence, scale 0 to 100, 0 no effect, 100 complete control, read-out: Plant response rating, Ragweed
[19] = pre-emergence, Preemergence, scale 0 to 100 (0 no effect, 100 complete control), read-out: Plant response rating, Ragweed
[20] = post-emergence, Postemergence, scale 0 to 100 (0 no effect, 100 complete control), read-out: Wheat plant response rating
[21] = post-emergence, Postemergence, scale 0 to 100, 0 no effect, 100 complete control, read-out: Plant response rating, Wheat
[22] = pre-emergence, Preemergence, scale 0 to 100 (0 no effect, 100 complete control), read-out: Plant response rating, Wheat
[23] = post-emergence, Postemergence, scale 0 to 100 (0 no effect, 100 complete control), read-out: Oilseed Rape plant response rating
[24] = post-emergence, Postemergence, scale 0 to 100, 0 no effect, 100 complete control, read-out: Plant response rating, Oilseed Rape
[25] = pre-emergence, Preemergence, scale 0 to 100 (0 no effect, 100 complete control), read-out: Plant response rating, Oilseed Rape
[26] = post-emergence, Postemergence, scale 0 to 100 (0 no effect, 100 complete control), read-out: Foxtail, Giant plant response rating
[27] = post-emergence, Postemergence, scale 0 to 100, 0 no effect, 100 complete control, read-out: Plant response rating, Foxtail, Giant
[28] = pre-emergence, Preemergence, scale 0 to 100 (0 no effect, 100 complete control), read-out: Plant response rating, Foxtail, Giant
[29] = post-emergence, Postemergence, scale 0 to 100 (0 no effect, 100 complete control), read-out: Pigweed plant response rating
[30] = post-emergence, Postemergence, scale 0 to 100, 0 no effect, 100 complete control, read-out: Plant response rating, Pigweed
[31] = pre-emergence, Preemergence, scale 0 to 100 (0 no effect, 100 complete control), read-out: Plant response rating, Pigweed
[32] = post-emergence, Postemergence, scale 0 to 100 (0 no effect, 100 complete control), read-out: Blackgrass plant response rating
[33] = post-emergence, Postemergence, scale 0 to 100, 0 no effect, 100 complete control, read-out: Plant response rating, Blackgrass
[34] = pre-emergence, Preemergence, scale 0 to 100 (0 no effect, 100 complete control), read-out: Plant response rating, Blackgrass
[35] = post-emergence, Postemergence, scale 0 to 100 (0 no effect, 100 complete control), read-out: Johnsongrass plant response rating
[36] = post-emergence, Postemergence, scale 0 to 100, 0 no effect, 100 complete control, read-out: Plant response rating, Johnsongrass
[37] = pre-emergence, Preemergence, scale 0 to 100 (0 no effect, 100 complete control), read-out: Plant response rating, Johnsongrass

SMILES: FC(F)(F)c1cc(-c2ccccc2Oc2ncc(Cl)cn2)on1 [Compound 63, 5-chloro-2-[2-[3-(trifluoromethyl)-5-isoxazolyl]phenoxy]pyrimidine]
- pest or weed control at 16 g/ha [1, 10]: 5%
- pest or weed control at 31 g/ha [1, 10]: 10%
- pest or weed control at 62 g/ha [1, 11]: 10%
- pest or weed control at 125 g/ha [1, 11]: 10%
- pest or weed control at 62 g/ha [1, 12]: 98%
- pest or weed control at 125 g/ha [1, 12]: 100%
- pest or weed control at 16 g/ha [1, 13]: 30%
- pest or weed control at 31 g/ha [1, 13]: 65%
- plant injury at 16 g/ha [2, 14]: 35%
- plant injury at 31 g/ha [2, 14]: 45%
- plant injury at 62 g/ha [2, 15]: 55%
- plant injury at 125 g/ha [2, 15]: 98%
- plant injury at 125 g/ha ([2]; pre-emergence, Preemergence, read-out: Plant response rating (scale 0 to 100), Soybean): 60%
- plant injury at 16 g/ha [2, 16]: 5%
- plant injury at 31 g/ha [2, 16]: 15%
- plant injury at 62 g/ha [2, 16]: 45%
- pest or weed control at 16 g/ha [3, 17]: 10%
- pest or weed control at 31 g/ha [3, 17]: 40%
- pest or weed control at 62 g/ha [3, 18]: 55%
- pest or weed control at 125 g/ha [3, 18]: 55%
- pest or weed control at 125 g/ha ([3]; pre-emergence, Preemergence, read-out: Plant response rating (scale 0 to 100), Ragweed): 70%
- pest or weed control at 16 g/ha [3, 19]: 75%
- pest or weed control at 31 g/ha [3, 19]: 20%
- pest or weed control at 62 g/ha [3, 19]: 55%
- plant injury at 16 g/ha [4, 20]: 0%
- plant injury at 31 g/ha [4, 20]: 0%
- plant injury at 62 g/ha [4, 21]: 5%
- plant injury at 125 g/ha [4, 21]: 5%
- plant injury at 125 g/ha ([4]; pre-emergence, Preemergence, read-out: Plant response rating (scale 0 to 100), Wheat): 45%
- plant injury at 16 g/ha [4, 22]: 0%
- plant injury at 31 g/ha [4, 22]: 0%
- plant injury at 62 g/ha [4, 22]: 10%
- plant injury at 16 g/ha [5, 23]: 60%
- plant injury at 31 g/ha [5, 23]: 90%
- plant injury at 62 g/ha [5, 24]: 98%
- plant injury at 125 g/ha [5, 24]: 100%
- plant injury at 125 g/ha ([5]; pre-emergence, Preemergence, read-out: Plant response rating (scale 0 to 100), Oilseed Rape): 98%
- plant injury at 16 g/ha [5, 25]: 70%
- plant injury at 31 g/ha [5, 25]: 98%
- plant injury at 62 g/ha [5, 25]: 98%
- pest or weed control at 16 g/ha [6, 26]: 0%
- pest or weed control at 31 g/ha [6, 26]: 5%
- pest or weed control at 62 g/ha [6, 27]: 10%
- pest or weed control at 125 g/ha [6, 27]: 20%
- pest or weed control at 125 g/ha ([6]; pre-emergence, Preemergence, read-out: Plant response rating (scale 0 to 100), Foxtail, Giant): 100%
- pest or weed control at 16 g/ha [6, 28]: 30%
- pest or weed control at 31 g/ha [6, 28]: 80%
- pest or weed control at 62 g/ha [6, 28]: 98%
- pest or weed control at 16 g/ha [7, 29]: 85%
- pest or weed control at 31 g/ha [7, 29]: 85%
- pest or weed control at 62 g/ha [7, 30]: 90%
- pest or weed control at 125 g/ha [7, 30]: 95%
- pest or weed control at 125 g/ha ([7]; pre-emergence, Preemergence, read-out: Plant response rating (scale 0 to 100), Pigweed): 100%
- pest or weed control at 16 g/ha [7, 31]: 95%
- pest or weed control at 31 g/ha [7, 31]: 100%
- pest or weed control at 62 g/ha [7, 31]: 100%
- pest or weed control at 16 g/ha [8, 32]: 5%
- pest or weed control at 31 g/ha [8, 32]: 10%
- pest or weed control at 62 g/ha [8, 33]: 20%
- pest or weed control at 125 g/ha [8, 33]: 25%
- pest or weed control at 125 g/ha ([8]; pre-emergence, Preemergence, read-out: Plant response rating (scale 0 to 100), Blackgrass): 90%
- pest or weed control at 16 g/ha [8, 34]: 30%
- pest or weed control at 31 g/ha [8, 34]: 85%
- pest or weed control at 62 g/ha [8, 34]: 90%
- pest or weed control at 16 g/ha [9, 35]: 5%
- pest or weed control at 31 g/ha [9, 35]: 5%
- pest or weed control at 62 g/ha [9, 36]: 25%
- pest or weed control at 125 g/ha [9, 36]: 45%
- pest or weed control at 125 g/ha ([9]; pre-emergence, Preemergence, read-out: Plant response rating (scale 0 to 100), Johnsongrass): 85%
- pest or weed control at 16 g/ha [9, 37]: 5%
- pest or weed control at 31 g/ha [9, 37]: 35%
- pest or weed control at 62 g/ha [9, 37]: 70%
